The assay has as its target T1, ACAT (Rattus norvegicus, UniProt O70536).
T1 construct: The rat peritoneal-derived macrophage was prepared; endogenous in cells; host or cells: rat peritoneal macrophages (primary)
T1 sequence (O70536 1-545): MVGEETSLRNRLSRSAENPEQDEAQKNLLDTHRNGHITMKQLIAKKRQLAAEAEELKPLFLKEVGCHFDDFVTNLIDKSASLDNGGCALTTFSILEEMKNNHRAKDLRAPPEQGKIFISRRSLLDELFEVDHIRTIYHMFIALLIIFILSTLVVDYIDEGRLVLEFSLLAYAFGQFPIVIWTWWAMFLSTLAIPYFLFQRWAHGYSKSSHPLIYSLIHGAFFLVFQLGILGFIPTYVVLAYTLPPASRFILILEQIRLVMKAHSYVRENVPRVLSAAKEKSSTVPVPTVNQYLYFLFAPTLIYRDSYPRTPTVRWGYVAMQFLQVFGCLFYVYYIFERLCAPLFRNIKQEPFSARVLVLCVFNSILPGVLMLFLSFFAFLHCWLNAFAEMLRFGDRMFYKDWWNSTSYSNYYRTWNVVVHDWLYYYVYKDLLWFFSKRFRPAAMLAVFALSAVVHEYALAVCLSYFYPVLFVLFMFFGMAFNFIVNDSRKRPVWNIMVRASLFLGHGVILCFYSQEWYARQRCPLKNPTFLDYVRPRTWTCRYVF
Briefly: Assay of ACAT inhibitory activity in the macrophage derived from rat peritoneal. The assay is classed as cell-based. As to conditions: [9,10-3H]oleic acid, exogenous cholesterol in liposome. The method, then: 2. Assay of ACAT inhibitory activity in the macrophage derived from rat peritoneal:
The rat peritoneal-derived macrophage was prepared according to the method disclosed in the literature: Biochimica et Biophysica Acta, 1126, 73-80, 1992. The ACAT activity was determined by a modified method of the method disclosed in the above literature: Biochimica et Biophysica Acta, 1126, 73-80, 1992, i.e., using radioactive [9,10-^3H]oleic acid and exogenous cholesterol contained in the liposome which was re-constituted according to the method disclosed in the literature: Biochimica et Biophysica Acta, 1213, 127-134, 1994, and calculated from the radioactivity of the labeled cholesterolyl oleate.

Each structure is given as a SMILES string.

For orientation: IC50 means the concentration needed to halve the response being measured. Read a high IC50 as weaker potency in that assay.

In the case of `CCCCn1cc(C)c(-c2cc(C#CCN(CC)CC)ccc2OC)c(NC(=O)Nc2c(C(C)C)cccc2C(C)C)c1=O` [Example 18, N-[1-butyl-2-oxo-4-[5-{3-(diethylamino)-1-propynyl}-2-methoxy]phenyl-5-methyl-1,2-dihydropyridin-3-yl]-N′-(2,6-diisopropylphenyl) urea], the IC50 was 16 nM.

For the origin of these results see US6452008B2, “Pyridone derivatives and process for preparing the same” (Sumitomo Pharmaceuticals Company, Limited, priority 1998, dated 2002).
